The values that follow come from ChEMBL document CHEMBL1201862, “PubChem BioAssay data set” (2004).

In test [1] the target is Metabotropic glutamate receptor 5 (Rattus norvegicus, UniProt P31424). In words: Identification of a glycine sulfonamide based non-MPEP site positive allosteric potentiator (PAM) of mGlu5 (calcium_assay). Format: functional.
Test [2] deals with T1, Replicative DNA helicase DnaB (Mycobacterium tuberculosis, UniProt P9WMR3).
T1 sequence (P9WMR3 whole entry): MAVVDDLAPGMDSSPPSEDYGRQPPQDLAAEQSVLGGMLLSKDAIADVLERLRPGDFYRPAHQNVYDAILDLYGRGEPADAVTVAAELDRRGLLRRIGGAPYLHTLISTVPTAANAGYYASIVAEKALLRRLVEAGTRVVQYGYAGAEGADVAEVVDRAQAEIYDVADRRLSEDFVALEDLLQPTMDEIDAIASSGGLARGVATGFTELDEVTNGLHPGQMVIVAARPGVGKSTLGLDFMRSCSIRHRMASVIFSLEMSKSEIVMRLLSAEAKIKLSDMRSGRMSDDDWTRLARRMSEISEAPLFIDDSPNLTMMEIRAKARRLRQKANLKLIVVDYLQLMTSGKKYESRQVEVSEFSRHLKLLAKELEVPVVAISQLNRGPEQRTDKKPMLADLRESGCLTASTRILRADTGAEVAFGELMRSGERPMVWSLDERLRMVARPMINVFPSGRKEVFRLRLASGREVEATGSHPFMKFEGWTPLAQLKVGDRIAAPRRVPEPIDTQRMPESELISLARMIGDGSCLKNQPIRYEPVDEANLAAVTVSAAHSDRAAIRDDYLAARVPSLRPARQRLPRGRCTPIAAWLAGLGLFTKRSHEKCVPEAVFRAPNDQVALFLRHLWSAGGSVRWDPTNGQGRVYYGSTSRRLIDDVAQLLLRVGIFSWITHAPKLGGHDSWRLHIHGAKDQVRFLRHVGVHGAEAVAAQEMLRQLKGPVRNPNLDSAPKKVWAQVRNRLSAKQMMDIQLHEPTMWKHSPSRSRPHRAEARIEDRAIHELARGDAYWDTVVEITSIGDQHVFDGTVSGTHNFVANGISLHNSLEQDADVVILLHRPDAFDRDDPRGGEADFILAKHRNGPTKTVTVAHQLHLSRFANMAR
The test can be described thus: DnaB intein splicing inhibitors, dose response, biochemical, cell-free fluorescence (AID 449749). The format is functional.

The next test concerns the target fMet-Leu-Phe receptor (Homo sapiens, UniProt P21462). The test can be described thus: formyl peptide receptor binders – dose response (AID 519). Format: functional.
For another test, the target named is T2, Protein RecA (Mycobacterium tuberculosis, UniProt P9WHJ3).
T2 sequence (P9WHJ3 whole entry): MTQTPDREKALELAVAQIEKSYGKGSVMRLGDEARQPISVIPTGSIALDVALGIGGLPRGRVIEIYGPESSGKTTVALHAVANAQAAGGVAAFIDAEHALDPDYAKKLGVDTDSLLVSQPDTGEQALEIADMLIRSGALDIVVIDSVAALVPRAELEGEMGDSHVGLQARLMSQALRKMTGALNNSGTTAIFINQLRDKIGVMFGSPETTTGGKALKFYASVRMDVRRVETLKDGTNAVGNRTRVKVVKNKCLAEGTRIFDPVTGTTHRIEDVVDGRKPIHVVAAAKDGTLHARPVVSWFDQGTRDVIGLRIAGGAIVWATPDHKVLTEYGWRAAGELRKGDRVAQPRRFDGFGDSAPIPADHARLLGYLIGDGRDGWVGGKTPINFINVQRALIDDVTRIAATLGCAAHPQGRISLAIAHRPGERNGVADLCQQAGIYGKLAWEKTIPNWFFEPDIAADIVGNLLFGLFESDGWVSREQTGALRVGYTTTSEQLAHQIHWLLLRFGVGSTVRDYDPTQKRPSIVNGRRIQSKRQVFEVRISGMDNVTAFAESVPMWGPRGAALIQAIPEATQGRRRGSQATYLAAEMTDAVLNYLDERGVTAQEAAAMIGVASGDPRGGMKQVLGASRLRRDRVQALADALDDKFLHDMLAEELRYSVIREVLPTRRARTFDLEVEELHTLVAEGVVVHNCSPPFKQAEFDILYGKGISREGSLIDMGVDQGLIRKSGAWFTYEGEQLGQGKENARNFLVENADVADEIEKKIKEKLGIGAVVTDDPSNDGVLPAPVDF
The test can be described thus: Fluorescence Cell-Free Homogeneous Dose Retest to Identify Inhibitors of RecA-Intein Splicing Activity. [Related pubchem assays (depositor defined):AID2097, AID2223, AID489010, AID492950]. The format is functional.

Another test addresses Nonstructural protein 1 (Influenza A virus, UniProt Q194T2). The format is functional, Influenza A virus (A/California/07/2009(H1N1)).
The nature of test [3]: Late stage assay provider results from the probe development effort to identify selective inhibitors of heat shock protein 90 (HSP90): Absorbance-based cell proliferation assay in SKBR3 cells. The format is functional. The note with it: SK-BR-3.
The nature of test [4]: Late stage assay provider results from the probe development effort to identify selective inhibitors of heat shock protein 90 (HSP90): Absorbance-based cell proliferation assay in MCF7 cells. Format: functional.
Test [5] deals with Peroxisome proliferator-activated receptor gamma/Nuclear receptor coactivator 3 (Homo sapiens, UniProt P37231). Format: functional.
The target in the next test is Ion channel NompC (Danio rerio, UniProt Q7T1G6). In words: Fluorescence counterscreen assay for TRPML3 agonists: dose response cell-based high-throughput screening assay to identify agonists of the transient receptor potential channel N1 (TRPN1). [Related pubchem assays: 1526, 1424, 1448 ]. The format is functional.
Test [6] deals with Peroxisome proliferator-activated receptor gamma/Nuclear receptor coactivator 1 (Homo sapiens, UniProt P37231). The format is functional.
Another test has as its target Mucolipin-3 (Homo sapiens, UniProt Q8TDD5). The test can be described thus: Dose response cell-based high-throughput screening assay for agonists of the transient receptor potential channel ML3 (TRPML3). [Related pubchem assays: 1526, 1424, 1448 ]. Format: functional.
Test [7] deals with Peroxisome proliferator-activated receptor gamma/Nuclear receptor coactivator 2 (Homo sapiens, UniProt P37231). Format: functional.
A further test deals with T3, Leucine aminopeptidase (Plasmodium falciparum 3D7, UniProt Q8IL11).
T3 sequence (Q8IL11 whole entry): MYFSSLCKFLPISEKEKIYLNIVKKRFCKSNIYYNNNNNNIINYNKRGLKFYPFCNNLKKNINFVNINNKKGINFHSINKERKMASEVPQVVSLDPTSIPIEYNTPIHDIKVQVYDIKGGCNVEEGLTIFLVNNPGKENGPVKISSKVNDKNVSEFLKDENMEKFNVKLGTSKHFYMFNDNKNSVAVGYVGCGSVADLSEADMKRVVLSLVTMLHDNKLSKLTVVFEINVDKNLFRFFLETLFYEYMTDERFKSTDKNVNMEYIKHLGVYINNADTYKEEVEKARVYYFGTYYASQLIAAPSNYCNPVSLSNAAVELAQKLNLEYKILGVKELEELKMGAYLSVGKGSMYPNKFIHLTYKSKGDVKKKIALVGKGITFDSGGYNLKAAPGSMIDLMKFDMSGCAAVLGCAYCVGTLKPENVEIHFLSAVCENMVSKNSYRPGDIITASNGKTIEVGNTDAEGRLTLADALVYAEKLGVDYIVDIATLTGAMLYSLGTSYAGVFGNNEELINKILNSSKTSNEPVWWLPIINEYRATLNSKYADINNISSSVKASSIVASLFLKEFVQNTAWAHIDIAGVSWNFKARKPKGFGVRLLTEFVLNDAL
The test can be described thus: P. falciparum M17LAP inhibitors, primary screen, biochemical, fluorogenic H-Leu-NHMec substrate, 1536-well (AID 1619). The format is functional.

The target in test [8] is T4, Oxysterols receptor LXR-beta (Homo sapiens, UniProt P55055).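 Note: agonist activity at LXR measured by a cell-based luminescence readout across a dose range, run as a counterscreen for daf-12 agonists; HEK293 cells with Gal4-LXR fusion and GAL4-driven luciferase reporter; potency for activation of Gal4-LXR reporter so compounds are agonists.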
T4 sequence (P55055 whole entry): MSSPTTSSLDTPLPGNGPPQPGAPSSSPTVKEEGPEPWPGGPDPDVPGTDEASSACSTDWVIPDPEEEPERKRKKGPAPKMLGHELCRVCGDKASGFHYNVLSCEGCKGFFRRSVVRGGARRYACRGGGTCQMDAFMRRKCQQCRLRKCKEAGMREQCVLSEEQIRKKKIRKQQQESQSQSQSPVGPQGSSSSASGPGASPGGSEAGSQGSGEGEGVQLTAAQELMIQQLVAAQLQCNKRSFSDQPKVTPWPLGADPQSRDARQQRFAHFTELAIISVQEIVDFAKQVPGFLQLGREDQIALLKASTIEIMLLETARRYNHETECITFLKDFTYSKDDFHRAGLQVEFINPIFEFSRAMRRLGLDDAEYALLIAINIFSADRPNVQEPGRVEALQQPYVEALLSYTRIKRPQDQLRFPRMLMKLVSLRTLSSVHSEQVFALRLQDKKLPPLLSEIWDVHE
The format is functional, cell-based.

Test [9] deals with Streptococcus sp. 'group A'. The test can be described thus: Streptococcus pyogenes SK(-)GAS viability under kanamycin – luminescence, BacTiterGlo, confirmation, counter-screen for streptokinase expression inhibitor project, dose response (AID 1900). Format: functional, organism-based.
In another test the test system is Streptococcus. In words: GAS UMAA2166 growth inhibition – luminescence, BacTiterGlo, counter-screen for streptokinase expression inhibitor project, dose response (AID 1915).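 Note: potency for reduction of bacterial viability or growth.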 The format is functional, organism-based.
The target of test [10] is Disintegrin and metalloproteinase domain-containing protein 17 (Homo sapiens, UniProt P78536). The test can be described thus: exosite inhibitors of ADAM17, dose response, biochemical (AID 743260).
The target of another test is T5, Streptokinase A (Streptococcus pyogenes serotype M1, UniProt P10520).
T5 sequence (P10520 whole entry): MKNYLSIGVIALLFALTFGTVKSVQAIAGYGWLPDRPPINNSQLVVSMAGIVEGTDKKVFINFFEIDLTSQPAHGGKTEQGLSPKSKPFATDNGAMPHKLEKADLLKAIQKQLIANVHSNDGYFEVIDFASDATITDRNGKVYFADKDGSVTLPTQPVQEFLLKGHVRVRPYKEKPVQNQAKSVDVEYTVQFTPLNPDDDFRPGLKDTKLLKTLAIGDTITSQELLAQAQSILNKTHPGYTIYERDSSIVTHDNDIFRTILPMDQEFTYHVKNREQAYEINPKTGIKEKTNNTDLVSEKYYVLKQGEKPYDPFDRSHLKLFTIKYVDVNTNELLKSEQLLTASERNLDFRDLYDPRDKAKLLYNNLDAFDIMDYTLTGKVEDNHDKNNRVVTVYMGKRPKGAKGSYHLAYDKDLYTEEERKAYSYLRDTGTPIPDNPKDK
In words: viability-normalized secreted streptokinase activity reduction – plasminogen activation absorbance, OD405, dose response (AID 1914).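 Note: secreted streptokinase activity via plasminogen activation per viability signal from cell pellet.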 The format is functional, Streptococcus pyogenes M1 GAS.

Active and inactive are the calls of the source.

Chain of Peroxisome proliferator-activated receptor gamma/Nuclear receptor coactivator 1 (P37231 whole entry): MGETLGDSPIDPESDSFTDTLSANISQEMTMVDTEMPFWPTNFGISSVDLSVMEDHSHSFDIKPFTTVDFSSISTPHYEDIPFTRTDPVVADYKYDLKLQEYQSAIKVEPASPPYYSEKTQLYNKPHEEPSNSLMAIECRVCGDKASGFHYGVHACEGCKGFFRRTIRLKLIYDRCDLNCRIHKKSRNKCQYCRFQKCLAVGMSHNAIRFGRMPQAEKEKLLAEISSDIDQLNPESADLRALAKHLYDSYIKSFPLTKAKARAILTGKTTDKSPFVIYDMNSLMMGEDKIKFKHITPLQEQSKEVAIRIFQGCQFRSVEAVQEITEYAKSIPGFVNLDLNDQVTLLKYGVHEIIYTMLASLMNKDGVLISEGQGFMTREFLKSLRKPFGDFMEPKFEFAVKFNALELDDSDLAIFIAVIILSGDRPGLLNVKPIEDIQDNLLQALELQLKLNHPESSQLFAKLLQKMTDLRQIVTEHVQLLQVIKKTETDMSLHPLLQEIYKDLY
Chain of Peroxisome proliferator-activated receptor gamma/Nuclear receptor coactivator 1 (Q15788 whole entry, further chain): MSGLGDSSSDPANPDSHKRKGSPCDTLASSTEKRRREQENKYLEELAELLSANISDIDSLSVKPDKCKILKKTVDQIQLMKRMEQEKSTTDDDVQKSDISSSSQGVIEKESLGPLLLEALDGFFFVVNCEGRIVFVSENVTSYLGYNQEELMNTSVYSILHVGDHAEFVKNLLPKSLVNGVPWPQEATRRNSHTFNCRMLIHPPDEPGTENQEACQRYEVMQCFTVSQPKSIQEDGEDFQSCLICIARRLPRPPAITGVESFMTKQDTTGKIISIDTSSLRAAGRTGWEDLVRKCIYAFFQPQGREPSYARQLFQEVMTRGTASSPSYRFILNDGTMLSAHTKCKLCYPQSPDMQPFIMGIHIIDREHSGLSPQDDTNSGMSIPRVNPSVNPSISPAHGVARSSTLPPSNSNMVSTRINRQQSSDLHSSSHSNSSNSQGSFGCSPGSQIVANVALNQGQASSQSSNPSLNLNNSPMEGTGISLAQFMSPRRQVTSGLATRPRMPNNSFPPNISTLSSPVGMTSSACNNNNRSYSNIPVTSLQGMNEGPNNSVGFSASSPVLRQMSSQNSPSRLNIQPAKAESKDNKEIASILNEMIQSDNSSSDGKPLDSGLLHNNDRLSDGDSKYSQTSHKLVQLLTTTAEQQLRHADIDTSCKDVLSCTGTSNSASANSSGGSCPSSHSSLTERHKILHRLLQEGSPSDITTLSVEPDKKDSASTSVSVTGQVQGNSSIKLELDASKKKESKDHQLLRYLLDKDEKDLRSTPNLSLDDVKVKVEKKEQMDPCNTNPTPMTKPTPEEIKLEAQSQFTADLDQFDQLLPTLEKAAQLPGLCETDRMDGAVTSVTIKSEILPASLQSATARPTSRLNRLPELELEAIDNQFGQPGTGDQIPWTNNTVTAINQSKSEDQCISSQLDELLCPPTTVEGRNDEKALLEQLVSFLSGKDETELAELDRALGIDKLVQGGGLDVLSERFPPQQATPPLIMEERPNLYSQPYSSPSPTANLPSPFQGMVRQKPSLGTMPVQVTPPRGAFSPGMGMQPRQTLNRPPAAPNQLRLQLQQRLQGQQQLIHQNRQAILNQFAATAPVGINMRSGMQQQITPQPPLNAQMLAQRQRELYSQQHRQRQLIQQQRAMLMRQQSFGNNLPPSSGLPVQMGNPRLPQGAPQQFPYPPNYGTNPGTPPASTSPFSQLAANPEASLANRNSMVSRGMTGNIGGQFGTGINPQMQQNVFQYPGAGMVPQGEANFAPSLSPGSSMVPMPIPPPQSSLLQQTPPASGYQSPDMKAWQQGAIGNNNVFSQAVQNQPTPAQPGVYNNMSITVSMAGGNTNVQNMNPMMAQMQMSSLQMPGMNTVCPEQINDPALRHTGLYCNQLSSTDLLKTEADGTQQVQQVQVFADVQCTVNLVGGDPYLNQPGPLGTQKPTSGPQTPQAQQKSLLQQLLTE
Chain of Peroxisome proliferator-activated receptor gamma/Nuclear receptor coactivator 3 (P37231 whole entry): as the sequence (P37231 whole entry) above
Chain of Peroxisome proliferator-activated receptor gamma/Nuclear receptor coactivator 3 (Q9Y6Q9 whole entry, further chain): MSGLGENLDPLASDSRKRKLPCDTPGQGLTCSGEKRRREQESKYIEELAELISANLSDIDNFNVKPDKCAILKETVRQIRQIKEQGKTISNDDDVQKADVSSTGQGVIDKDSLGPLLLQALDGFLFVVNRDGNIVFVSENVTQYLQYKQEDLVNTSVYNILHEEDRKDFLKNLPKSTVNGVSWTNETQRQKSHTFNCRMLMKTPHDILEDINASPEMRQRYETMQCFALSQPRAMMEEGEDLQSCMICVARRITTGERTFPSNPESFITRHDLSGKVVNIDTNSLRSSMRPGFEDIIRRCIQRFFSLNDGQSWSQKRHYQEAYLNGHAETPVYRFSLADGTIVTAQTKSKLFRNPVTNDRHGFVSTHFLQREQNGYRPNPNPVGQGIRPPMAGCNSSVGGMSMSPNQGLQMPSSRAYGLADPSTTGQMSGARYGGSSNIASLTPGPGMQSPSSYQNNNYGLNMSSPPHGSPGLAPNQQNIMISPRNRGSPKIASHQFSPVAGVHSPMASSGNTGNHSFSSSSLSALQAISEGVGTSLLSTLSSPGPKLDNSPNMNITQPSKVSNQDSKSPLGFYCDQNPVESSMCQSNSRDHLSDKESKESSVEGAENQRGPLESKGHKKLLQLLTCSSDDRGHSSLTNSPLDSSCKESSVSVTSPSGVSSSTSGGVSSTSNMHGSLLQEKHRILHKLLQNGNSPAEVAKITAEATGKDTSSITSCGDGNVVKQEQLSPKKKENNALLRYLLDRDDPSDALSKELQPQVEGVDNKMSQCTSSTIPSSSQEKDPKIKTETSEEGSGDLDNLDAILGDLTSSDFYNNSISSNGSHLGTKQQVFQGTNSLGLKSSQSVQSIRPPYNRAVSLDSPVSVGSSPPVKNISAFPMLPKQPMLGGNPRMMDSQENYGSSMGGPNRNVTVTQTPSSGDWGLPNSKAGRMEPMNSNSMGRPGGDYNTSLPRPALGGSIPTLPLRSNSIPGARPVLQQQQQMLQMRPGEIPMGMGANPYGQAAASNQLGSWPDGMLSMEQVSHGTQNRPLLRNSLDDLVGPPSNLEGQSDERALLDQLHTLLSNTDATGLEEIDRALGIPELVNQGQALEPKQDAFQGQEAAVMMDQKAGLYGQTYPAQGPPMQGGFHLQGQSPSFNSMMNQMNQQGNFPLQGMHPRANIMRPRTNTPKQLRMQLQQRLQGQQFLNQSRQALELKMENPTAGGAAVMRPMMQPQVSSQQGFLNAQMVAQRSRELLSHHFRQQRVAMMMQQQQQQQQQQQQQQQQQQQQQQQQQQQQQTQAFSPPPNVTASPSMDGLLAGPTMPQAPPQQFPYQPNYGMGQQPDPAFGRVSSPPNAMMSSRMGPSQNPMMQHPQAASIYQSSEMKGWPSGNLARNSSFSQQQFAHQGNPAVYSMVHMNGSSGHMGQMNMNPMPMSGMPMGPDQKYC
Chain of Metabotropic glutamate receptor 5 (P31424 whole entry): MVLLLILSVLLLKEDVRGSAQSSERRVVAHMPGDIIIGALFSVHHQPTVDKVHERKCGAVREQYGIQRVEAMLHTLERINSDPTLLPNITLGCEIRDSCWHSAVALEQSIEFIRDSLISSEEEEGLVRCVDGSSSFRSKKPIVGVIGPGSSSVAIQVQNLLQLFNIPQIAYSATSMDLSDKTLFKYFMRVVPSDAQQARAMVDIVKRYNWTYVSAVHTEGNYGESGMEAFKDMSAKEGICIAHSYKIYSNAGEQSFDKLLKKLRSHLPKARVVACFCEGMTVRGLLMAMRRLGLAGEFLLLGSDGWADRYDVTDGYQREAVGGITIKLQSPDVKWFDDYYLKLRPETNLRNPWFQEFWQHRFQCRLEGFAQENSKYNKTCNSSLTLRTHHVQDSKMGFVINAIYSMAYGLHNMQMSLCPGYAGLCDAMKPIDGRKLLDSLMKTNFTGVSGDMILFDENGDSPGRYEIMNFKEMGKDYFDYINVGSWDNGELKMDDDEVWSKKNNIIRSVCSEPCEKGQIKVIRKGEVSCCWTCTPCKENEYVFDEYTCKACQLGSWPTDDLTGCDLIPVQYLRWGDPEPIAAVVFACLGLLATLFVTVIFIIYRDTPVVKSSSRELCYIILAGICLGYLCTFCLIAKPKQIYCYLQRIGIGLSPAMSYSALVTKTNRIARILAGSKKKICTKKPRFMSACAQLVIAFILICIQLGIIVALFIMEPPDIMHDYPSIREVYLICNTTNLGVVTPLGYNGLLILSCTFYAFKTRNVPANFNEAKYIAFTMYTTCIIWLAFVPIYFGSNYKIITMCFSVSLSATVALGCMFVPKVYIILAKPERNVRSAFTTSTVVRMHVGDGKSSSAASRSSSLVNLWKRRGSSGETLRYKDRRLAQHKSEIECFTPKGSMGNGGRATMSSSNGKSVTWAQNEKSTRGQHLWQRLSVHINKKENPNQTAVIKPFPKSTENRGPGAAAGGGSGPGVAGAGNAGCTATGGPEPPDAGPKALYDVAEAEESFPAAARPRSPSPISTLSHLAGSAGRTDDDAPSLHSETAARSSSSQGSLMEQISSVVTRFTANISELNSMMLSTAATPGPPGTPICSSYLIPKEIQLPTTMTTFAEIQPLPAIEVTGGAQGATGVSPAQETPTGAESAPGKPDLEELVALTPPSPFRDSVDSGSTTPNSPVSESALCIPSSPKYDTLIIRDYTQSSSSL

`CS(=O)(=O)N(CC(=O)Nc1ccccn1)c1cc(C(F)(F)F)ccc1Cl`: in [1], the EC50 was 0.085 µM.

As for `Nc1ccc(Nc2ccccc2N)cc1`, the AC50 in test [2] is 17.9 µM (active). For the same compound, the Ki at fMet-Leu-Phe receptor is > 66.7 µM (inactive). Moreover, the concentration for a half-maximal effect (EC50) at Protein RecA is 6.86 µM (active). Moreover, the half-maximal inhibitory concentration (IC50) on Nonstructural protein 1 was 8.33 µM (active).

As for `CC(=O)c1ccc(NC(=O)c2ccc(=O)oc2)cc1`, the IC50 in test [3] and in [4] was > 100 µM (inactive) in each case.

With `C=CCN1C=CC(=C/C=C(/C#N)C(=O)OCC)C=C1`, the EC50 in [5] was > 79.4 µM (not active); at Ion channel NompC, 6.09 µM (active); in test [6] it was > 79.4 µM (not active); at Mucolipin-3 it was 15.3 µM (not active); in test [7], > 79.4 µM (not active); in [8] it was > 67.5 µM (inactive). For the same compound, the IC50 on Leucine aminopeptidase was 72.5 µM (active).

With `Cc1cc(SCC(=O)c2ccc(O)c(O)c2)n2nc(C)c(-c3ccccc3)c2n1`, the half-maximal effective concentration (EC50) is 7.32 µM (active) in [9], 13.9 µM (active) in the test with Streptococcus and > 150 µM (not active) at Streptokinase A. Moreover, the IC50 in [10] is > 69.5 µM (inactive).
